# Source: patent publication US20110296540A1, “ASSAY FOR SCREENING ANTIDEPRESSANTS” (priority 2008, published 2011)
# What was measured:
# C57BL/6Ntac mice = assay: Open Field paradigm, chronic corticosterone model; format: in vivo
# Excerpt: The procedure described previously was used (Dulawa et al., 2004). Motor activity was quantified in four Plexiglas open field boxes 43 times 43 cm2 (MED Associates, Georgia, Vt.). Two sets of 16 pulse-modulated infrared photobeams were placed on opposite walls 2.5-cm apart to record x-y ambulatory movements. Activity chambers were computer interfaced for data sampling at 100-ms resolution. The computer defined grid lines that divided each Open Field into center and surround regions, with each of four lines being 11 cm from each wall. Dependent measures in the center were the total time and the number of entries over a 30-min period of test. The whole session was also divided in […] to analyze the time spent in the center every 5 min. The overall motor activity was quantified as the total distance traveled (cm) or distance traveled in the center divided by total distance traveled.
# Mice were anesthetized with ketamine and xylazine (100 mg/ml ketamine; 20 mg/ml xylazine), placed in a stereotaxic frame and exposed to cranial irradiation using a Siemens Stabilopan X-ray system operated at 300 kVp and 20 mA. Animals were protected with a lead shield that covered the entire body, but left unshielded a 3.22×11-mm treatment field above the hippocampus (interaural 3.00 to 0.00) exposed to X-Ray. Dosimetry was done using a Capintec Model PR06G electrometer ionization chamber and Kodak Readypack Radiographic XV films. The corrected dose rate was approximately 1.8 Gy per min at a source to skin distance of 30 cm. The procedure lasted 2 min and 47 sec, delivering a total of 5 Gy. Three 5 Gy doses were delivered on days 1, 4 and 8.
# [1] = test system: β-arrestin 2 knock out mice; assay: Forced Swim Test in β-arrestin 2 knock out mice and littermates; format: in vivo; details: relative to the control group
# Protocol: The forced swim test procedure was modified relative to the traditional method, so as to enhance sensitivity for detecting the putative antidepressant activity of drugs (Porsolt et al., 1977). The modifications consist of an increase in water depth (Dulawa et al., 2004). Mice were placed into plastic buckets (19 cm diameter, 23 cm deep, filled with 23-25° C. water) and videotaped for 6 min to score immobility duration.
# [2] = test system: β-arrestin 2 knock out mice; assay: Novelty Suppressed Feeding paradigm in β-arrestin 2 knock out mice and littermates; format: in vivo
# Excerpt: Twenty-four hours prior to behavioral testing, all food was removed from the home cage. At the time of testing, a single pellet of food (regular chow) was placed on a white paper platform positioned in the center of the box.
# [3] = test system: proliferating neural progenitors; assay: BrdU labelling of cell proliferation in the dentate gyrus; format: in vivo, mice
# Protocol: Immunohistochemistry and confocal imaging. Mice were anesthetized with ketamine/xylazine (100 and 7 mg/kg, respectively) and transcardially perfused (cold saline, followed by 4% cold paraformaldehyde in PBS). […] Immunohistochemistry was performed in the following steps: 2 h incubation in 1:1 formamide/2×SSC at 65° C., 5 min rinse in 2×SSC, 30 min incubation in 2N HCl at 37° C., and 10 min rinse in 0.1M boric acid, pH 8.5, 2 h incubation in 0.1M PBS with 0.3% Triton X-100, and 5% normal donkey serum. Sections were then incubated overnight at 4° C. in primary antibodies for doublecortin (goat; 1:500; Santa Cruz Biotechnology, Santa Cruz, Calif.), bromodeoxyuridine (BrdU; rat; 1:100; Serotec, Oxford, UK), and neuronal-specific nuclear protein (NeuN) (mouse; 1:500; Chemicon, Temecula, Calif.). Biotinylated or fluorescent secondary antibodies were used. All secondary antibodies were purchased from Jackson ImmunoResearch (West Grove, Pa.). DCX staining for Sholl analysis was done as follows: sections were rinsed in PBS, treated with 1% H2O2 in 1:1 PBS and methanol for 15 min to quench endogenous peroxidase activity (and to enhance dendritic staining), incubated in 10% normal donkey serum and 0.3% Triton X-100 for 30 min, and then incubated overnight at 4° C. in primary antibody for doublecortin. […] Stereological procedure was used to quantify labeled cells (Malberg et al., 2000 ? ). […]
# [4] = test system: dentate gyrus of the adult mouse hippocampus; assay: BrdU labeling for proliferation and survival study, corticosterone model
# Protocol: After anesthesia with ketamine (100 mg/kg), mice were perfused transcardially (cold saline for 2 min, followed by 4% cold paraformaldehyde at 4° C.). […] For DAB staining, sections were mounted on slides and boiled in citric acid (pH 6.0) for 5 min, rinsed with PBS, and treated with 0.01% trypsin in Tris/CaCl2 for 10 min. Brain sections were incubated for 30 min with 2N HCl and blocked with 5% NGS. Sections were then incubated overnight at room temperature with anti-mouse BrdU (1:100). After washing with PBS, sections were incubated for 1 hr with secondary antibody (1:200 biotinylated goat anti-mouse) followed by amplification with an avidinbiotin complex. The staining was visualized with DAB.
# SvEv129 mice = assay: Novelty-suppressed feeding test, sham or x-irradiated animals; format: in vivo; details: 28 d of fluoxetine; sham animals
# Protocol: Novelty-suppressed feeding test. […] The floor was covered with ˜2 cm of wooden bedding. Twenty-four hours before behavioral testing, animals were deprived of all food in the home cage. At the time of testing, two food pellets were placed on a piece of round filter paper (12 cm diameter) positioned in the center of the box. The test began immediately after the animal was placed in a corner of the box. The latency to approach the pellet and begin feeding was recorded (maximum time, 5 min). Immediately afterward, the animal was transferred back to its home cage and the amount of food consumed in 5 min was measured. Each mouse was weighed before food deprivation and before testing to assess the percentage of body weight lost.
# In the NSF paradigm, conflicting motivations are produced by presenting a food-deprived animal with a reward (food) within the context of a novel, aversive environment. The NSF test is among the few behavioral paradigms that can differentiate chronic versus subchronic responses to antidepressant treatments, using the latency to begin eating as an index of antidepressant/anxiety-like behavior.
structure (smiles),measurement,setting,value
CNCCC(Oc1ccc(C(F)(F)F)cc1)c1ccccc1 (stereo not shown) [fluoxetine],corticosterone-induced anxiety phenotype in the Open Field (time and entries in the center),"C57BL/6Ntac mice; 3-week antidepressant treatment in corticosterone-treated mice, imipramine 40, fluoxetine 18 mg/kg/day",reversed
same,ambulatory distance (Open Field),"C57BL/6Ntac mice; chronic corticosterone, with or without chronic fluoxetine",abolished
same,corticosterone-induced decrease of Open Field center parameters,"C57BL/6Ntac mice; chronic fluoxetine, regardless of X-irradiation",reversed
same,immobility (FST),[1]; wild-type mice,decrease in immobility
same,immobility (FST),[1]; β-arrestin 2 knockout mice,decrease in immobility
same,latency to feed (NSF),[2]; mutant (β-arrestin 2 knock out) mice,had no effect
same,latency to feed (NSF),[2]; wild-type mice,significantly decreased
same,number of BrdU cells in the granule cell layer (GCL),[3]; chronic (28 d) fluoxetine 18 mg/kg/d vs vehicle,increased
same,number of BrdU+ cells,"[3]; sham animals of the irradiation experiment, 28 d of fluoxetine",increase
same,change in cell proliferation induced by corticosterone,[4]; 3 weeks of fluoxetine 18 mg/kg/day,completely reversed
same,effect of fluoxetine on survival,"[4]; in the presence of corticosterone, compared with controls",even more pronounced
same,hippocampal cell proliferation,"[4]; non-corticosterone treated C57BL/6Ntac mice, chronic fluoxetine",did not affect
same,latency to feed (NSF),SvEv129 mice,reduced latency to feed
